Experiment [1] concerns TanUPO. As to conditions: read-out: apparent kinetic parameters; co-substrate H2O2 2 mM; McIlvaine buffer pH 4.5.
For experiment [2], the system named is T1, TanUPO.
T1 construct: native wild-type purified from culture of own fungal isolate; glycosylated heme-thiolate protein
Kind of experiment: HPLC-ELSD of […],15-EET formation. Type of experiment: biochemical, Truncatella angustata. The following applies: co-substrate H2O2 (from glucose/glucose oxidase); 20 mM phosphate pH 7.0, 30 °C, 20% (v/v) acetone; sigmoidal kinetics (Hill).

Structures can show the parent of a compound that is named as a salt. Where two headings read alike, the source gives them in different places.

Consider `CCn1c(=NN=c2sc3cc(S(=O)(=O)O)ccc3n2CC)sc2cc(S(=O)(=O)O)ccc21` [ABTS, 2,2′-azino-di(3-ethylbenzthiazoline-6-sulfonate) di-ammonium salt], for which the Km in experiment [1] was found to be 257 µM.

Turning to `CCCCC/C=C\C/C=C\C/C=C\C/C=C\CCCC(=O)O` [arachidonic acid, (5Z,8Z,11Z,14Z)-5,8,11,14-eicosatetraenoic acid], in experiment [2], the Km is ~200 µM.

These data come from PMC9322767, “Novel Unspecific Peroxygenase from Truncatella angustata Catalyzes the Synthesis of Bioactive Lipid Mediators” (Microorganisms, 2022).
